Measured values: PubChem BioAssay AID449764 (Southern Research Specialized Biocontainment Screening …, 2010)
Where a SMILES comes first, the peptide text is derived from it. [ ]: non-standard residue; d: D form. The star is where a group is joined. ξ: configuration not given here. ξF = NC(Cc1ccccc1)C(=O)O; Cbz = O=C(OCc1ccccc1)*

Test system: Mycobacterium tuberculosis H37Rv growth inhibition, no glycerol
Assay: Mycobacterium tuberculosis H37Rv growth inhibition, no glycerol, confirmatory dose response (AID 449764);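 note: growth read after 7 days of incubation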
Conditions: for IC90: measured here: IC90 growth inhibition

SMILES | IC50 | IC90
Cc1nc(SCC(=O)NCC2CCCO2)c2c3c(sc2n1)CCCC3 (stereo not drawn) | 23 µM | 25.2 µM
O=c1oc(-c2cccs2)nc2c1cnn2-c1ccccc1 | – | > 100 µM
c1ccc(Nc2nc(N3CCCCC3)nc(N3CCNCC3)n2)cc1 | 44.4 µM | 69.4 µM
O=C(NN=C1c2ccccc2-c2ccccc21)c1cccc(Br)c1 | 42.2 µM | > 100 µM
O=C1/C(=C/Nc2ccc3c(c2)OCO3)CCc2ccccc21 | 74.7 µM | > 100 µM
CN1CCN(c2c(F)cc3c(=O)c(C(=O)O)cn4c3c2OCN4C)CC1 | 0.72 µM | 0.93 µM
Cc1nn(-c2ccccc2)c(Cl)c1/C=C/C(=O)c1ccccc1 | 74.9 µM | 97.2 µM
CCOC(=O)CNC(=O)C(Cc1ccccc1)NC(=O)OCc1ccccc1 (stereo not drawn) (Cbz-[ξF]-Gly-OEt) | 3.04 µM | 3.46 µM
CN(C)c1ccc(CNC2C3CC4CC(C3)CC2C4)cc1 (stereo not drawn) | 12.2 µM | 17 µM
Cc1cc(C)n2nc(/C(C#N)=C/c3ccccn3)c(C#N)c2n1 | 19.4 µM | 35.5 µM
C/C(=N\N=C(/N)SC1CC(=O)N(c2ccc(Cl)cc2)C1=O)c1cccs1 (stereo not drawn) | 32.8 µM | > 100 µM
CC1(c2ccc(OC(F)F)cc2)NC(=O)N(CC(=O)c2ccc3c(c2)OCO3)C1=O (stereo not drawn) | 37.2 µM | 70.8 µM
C/C(=N\NC(=O)COc1ccc(C)cc1Br)c1cc([N+](=O)[O-])cs1 | 24 µM | 26.4 µM
CC1C/C(=C\c2cccnc2)C(=O)/C(=C/c2cccnc2)C1 (stereo not drawn) | 5.16 µM | 8.18 µM
O=C(/C(=C/c1ccc(Cl)cc1)c1nc2ccccc2[nH]1)c1cccs1 | 35.5 µM | 96.8 µM
C=CCOc1ccc(C2C(C#N)=C(N)N(Nc3ccccc3)C3=C2C(=O)CC(C)(C)C3)cc1OC (stereo not drawn) | 41.3 µM | > 100 µM
C=CCNC(=O)c1onc(CCl)c1C(=O)OC | 5.76 µM | 14.2 µM
Cn1c(SCc2ccccc2)nc(N)c(N=O)c1=O | 18.4 µM | 25.6 µM
COC(=O)[C@@H](NC(=O)c1cc(COc2cncc(Cl)c2)on1)c1ccccc1 | 2.93 µM | 3.31 µM
C/C(O)=C\c1nc2ccccc2oc1=O | 0.75 µM | 0.89 µM
FC(F)(F)c1ccc(Nc2nnnc3ccccc23)cc1 | 48.8 µM | 55.3 µM
O=C1NCN(c2ccccc2)C12CCN(CCCC(c1ccc(F)cc1)c1ccc(F)cc1)CC2 | 43.2 µM | 49.2 µM

SMILES | IC50 | IC90
CCOC(=O)c1ccc(N=C2C(=S)N(c3ccc(C(=O)OCC)cc3)C(=N)N2/N=C/c2ccccc2)cc1 | 99.7 µM | > 100 µM
Cc1cc(NC(=O)c2cc(-c3ccncc3)nc3c(C)cccc23)no1 | 93.1 µM | > 100 µM
O=C1Nc2ccc(Br)cc2C12NNc1ccccc1O2 (stereo not drawn) | 44.1 µM | 62.9 µM
CCCc1ccc(C2=Nn3c(nnc3C(C)C)SC2)cc1 | 29.6 µM | 51.1 µM
COC(=O)CSc1ncnc2c1cnn2-c1ccc(C)cc1C | 6.02 µM | 6.82 µM
Cc1ccc(S(=O)(=O)/N=C(\CCl)N2CCOCC2)cc1 | 18.6 µM | 27.5 µM
Cc1ccc(CNC(=O)c2sc3nc4c(c(C(F)(F)F)c3c2N)CCC4)cc1 | 46.3 µM | 50.9 µM
O=c1c(-c2cnn(-c3ccccc3)c2)coc2cc(O)ccc12 | 48.1 µM | > 100 µM
CCOC(=O)CSc1nnc(NC(=O)c2ccc3c(c2)OCO3)s1 | 11.4 µM | 20.2 µM
CC(C)(C)C(=O)N1CCN(c2ccc(NC(=O)c3ccc([N+](=O)[O-])o3)cc2)CC1 | < 0.2 µM | 1.93 µM
CSc1ncc(C(=O)Nc2ccc(Br)cn2)c(C)n1 | 1.54 µM | 2.93 µM
O=C(CCl)Nc1cccn2ncnc12 | 3.32 µM | 7.56 µM
COC(=O)C(CCSC)NC(=O)c1cn(-c2ccc(OC)cc2)c(=O)c2ccccc12 (stereo not drawn) | 24.3 µM | > 25 µM
Cc1ccc(C)c(-c2nn(-c3cc(N4CCN(CCO)CC4)ccc3[N+](=O)[O-])c(=O)c3ccccc23)c1 | 22.6 µM | 25.7 µM
COCCCN=C1NN=C(c2cc(C)n(Cc3ccco3)c2C)CS1 | 70.7 µM | 92.2 µM
Cc1ccc(C2=NCCn3c2c2ccccc2[n+]3[O-])cc1 | 24.5 µM | 31.7 µM
Fc1ccc2[nH]c3c(NCc4ccccc4)ncnc3c2c1 | 23.8 µM | 27 µM
Cc1ccc(Cn2ccsc2=NC(=O)CCl)cc1 | 2.86 µM | 6.73 µM
Cc1cc(C(=O)N[C@H](c2ccccc2)[C@@]2(C)C[C@@H]2[C@@H](C)C(=O)Nc2ccc3ccccc3c2)n(C)n1 | 39.1 µM | 53.9 µM
Cn1c(=O)c2c3c(sc2n2c(SCC(N)=O)nnc12)CC(C(C)(C)C)CC3 (stereo not drawn) | 24.7 µM | 41.7 µM
O=C(CSCc1ccc([N+](=O)[O-])cc1)N/N=C/c1ccncc1 | 11.3 µM | 26 µM
O=C(N/N=C(\c1ccccc1)c1ccccn1)c1ccccc1Cl | 12.1 µM | 15.5 µM

SMILES | IC50 | IC90
CSc1ccc(CNC(=O)c2ccc(NC(=O)C3=CSCCO3)cc2)cc1 | 7.07 µM | 25.5 µM
CCOC(=O)CN[C@H]1CCC2C3CC=C4C[C@@H](O)CC[C@]4(C)C3CC[C@@]21C (stereo partly drawn) | 3.53 µM | 14.3 µM
Cc1ccc(C)c(S(=O)(=O)N2CCC(c3nc4c(nnn4Cc4ccc5c(c4)OCCO5)c(=O)[nH]3)CC2)c1 | 24.2 µM | > 100 µM
O=C1C(=O)c2ccccc2-c2ccccc21 | 7.83 µM | 10.6 µM
Cc1cccc(OCC(=O)NNC(=O)c2cc3ccccc3oc2=O)c1 | – | > 100 µM
Cn1/c(=N/NC(=O)c2cccc(OC(F)F)c2)sc2ccccc21 | 9.17 µM | 24.1 µM
CN(CC(=O)Nc1ccccc1Br)C(=O)c1cccnc1Nc1cccc(C(F)(F)F)c1 | 35 µM | 48.7 µM
CCOC(=O)c1sc(NC(=O)CN2C(=O)NC3(CC(C)CC(C)(C)C3)C2=O)cc1C (stereo not drawn) | 34.1 µM | 48.4 µM
Cc1ccccc1CSc1nsc(N)n1 | 9.03 µM | 24.1 µM
O=C(NC1CCN(C(=O)N2c3ccccc3Sc3ccccc32)CC1)c1ccccc1F | – | > 100 µM
O=c1cc(-c2ccccc2Cl)oc2ccc([N+](=O)[O-])c(O)c12 | 21.4 µM | 28.2 µM
CCCOc1cccc(-c2nn(-c3ccccc3)cc2/C=C(\C#N)C(=O)NCCCn2ccnc2)c1 | 63.2 µM | 78.3 µM
CC(=O)N(Cc1ccc(F)cc1)C1=C(NCCc2ccccc2)C(=O)c2ccccc2C1=O | 10.2 µM | 16.6 µM
Cc1ccccc1N1CCN(c2ncnc3c2cnn3Cc2ccc(Cl)cc2)CC1 | 56.4 µM | > 100 µM
COc1cc(OC)c(OC)cc1CCC(C)NCCC(c1ccccc1)c1ccccc1 (stereo not drawn) | 23.4 µM | 26.7 µM
Clc1ccc(SCc2cc(N3CCOCC3)nc(-c3ccccn3)n2)cc1 | 6.68 µM | 11.6 µM
Nc1c(-c2ccccn2)cnn1-c1nc(-c2ccc(F)cc2)cs1 | 59.7 µM | > 100 µM
O=[N+]([O-])c1cc(-c2ncccn2)c([N+](=O)[O-])s1 | 33.1 µM | 38.8 µM
COc1ccccc1C1CC(c2c(-c3ccccc3)c3cc(Cl)ccc3[nH]c2=O)=NN1S(C)(=O)=O (stereo not drawn) | – | > 100 µM
CCOC(=O)C1CCN(c2cc3c(cc2NC(=O)c2ccccc2Cl)n(C)c(=O)n3C)CC1 | 44.8 µM | 51.2 µM
Cc1cc(CC(C)C)n(-c2nc3ccccc3c(=O)n2OCC(N)=O)n1 | 11.2 µM | 20.6 µM
CNC[C@@H](Cc1ccccc1)NC[C@@H](CC1CCCCC1)NCCCc1ccccc1 | 7.99 µM | 9.68 µM

SMILES | IC50 | IC90
C=C[C@]1(C)C[C@@H](OC(=O)CSCCN(CC)CC)[C@]2(C)C(C)CC[C@]3(CCC(=O)[C@H]32)[C@@H](C)[C@@H]1O (stereo partly drawn) | 5.69 µM | 8.16 µM
COc1ccc2cc1Oc1ccc(cc1)C[C@H]1c3c(cc(OC)c4c3Oc3c(ccc5c3[C@H](C2)N(C)CC5)O4)CCN1C | 5.54 µM | 6.24 µM
COc1ccc(Cl)cc1C(=O)O/N=C(\N)c1ccccn1 | 76.4 µM | > 100 µM
Cc1ccnc(NC(=O)CCc2c[nH]c3ccccc23)c1 | 21.5 µM | 31.9 µM
O=[N+]([O-])c1ccc(-n2cnc3ccccc32)c([N+](=O)[O-])c1 | 96.4 µM | > 100 µM
CCOc1cc(NC(=O)CCl)c(OCC)cc1NC(C)=O | 0.95 µM | 51.8 µM
O=[N+]([O-])c1ccc(C2CC(c3ccccc3)=Nc3ccccc3S2)cc1 (stereo not drawn) | 6.28 µM | 7.31 µM
Cc1ccc(C(=O)CC(SCC(=O)O)c2ccc([N+](=O)[O-])cc2)cc1 (stereo not drawn) | 10.8 µM | 12.1 µM
CC(C)NC(=S)N/N=C/c1c[nH]c2ccccc12 | – | > 100 µM
CN(C)c1ccc(-c2cc(O)c3ncccc3c2)cc1 | 2.63 µM | 3.53 µM
CNc1nc(-c2ccccn2)nnc1-c1ccccc1 | 22.7 µM | 25.4 µM
CCOC(=O)COc1ccc(/C=C2\NC(=S)N(CC)C2=O)cc1 | 3.1 µM | 3.44 µM
CNC(CC(C)C)C(=O)NC1C(=O)NC(CC(N)=O)C(=O)NC2C(=O)NC3C(=O)NC(C(=O)NC(C(=O)O)c4cc(O)cc(O)c4-c4cc3ccc4O)C(O)c3ccc(c(Cl)c3)Oc3cc2cc(c3OC2OC(CO)C(O)C(O)C2OC2C[C@](C)(N)C(O)C(C)O2)Oc2ccc(cc2Cl)C1O (stereo partly drawn) | 4.52 µM | 16.9 µM
COCCCn1c(SCc2cccc(OC)c2)nc2cc(OC)c(OC)cc2c1=N | 33.9 µM | 44.6 µM
CSc1ccc(NC(=O)Nc2cccn(Cc3ccccc3)c2=O)cc1 | – | > 100 µM
COc1ccc(/C=N/Nc2nncn2N)cc1Br | 10.5 µM | 13 µM
COc1cc(C)ccc1S(=O)(=O)N1CCN(C23CC4CC(CC(C4)C2)C3)CC1 | 46.5 µM | 51.1 µM
CCCCOc1ccc(Br)cc1/C(C)=N/NC1=NCCN1 | 22.4 µM | 31.8 µM
Cc1nn(Cc2ccccc2)c(C)c1NC(=O)c1cc2nc(-c3ccco3)cc(C(F)(F)F)n2n1 | 45.8 µM | 49.6 µM
CCCCC(O)(CCCC)C(=O)NN(C(=O)CCl)c1ccccc1 | 11.1 µM | 22.8 µM
Cc1ccccc1N/N=C/c1c(C)nc2ccccn12 | 57.8 µM | 72.5 µM
